Results published in patent publication US8574547B2, “Photoacoustic probes and methods of imaging” (The Board of Trustees of the Leland Stanford Junior …, priority 2007, dated 2013).

Target: T1, αvβ3 integrin (Homo sapiens, UniProt P05106+P06756)
T1 construct: endogenous in cells
Assay: Targeting ability: imaging inhibition of Alexa488 conjugated αvβ3 integrin antibody binding to cells
Type: cell-based
Details: cells incubated 1 hour with substance, then ½ hour with Alexa488 conjugated αvβ3 integrin antibody
Procedure: FIGS. 7(1)-7(4) illustrate digital images of cells that were incubated for 1 hour with PBS (FIG. 7(1)), QSY-21 (FIG. 7(2)), […] (FIG. 7(3)), and […] (FIG. 7(4)). Then the cells were incubated for ½ hour with Alexa488 conjugated αvβ3 integrin antibody.
Targeting ability of the conjugate was tested by imaging inhibition of the avb3 intergrin antibody. Cells were incubated for 1 hour with PBS (FIG. 7(1)), QSY-21 (FIG. 7(2)), RGD-QSY21 (FIG. 7(3)), and RGD (FIG. 7(4)). Then the cells were incubated for ½ hour with Alexa488 conjugated αvβ3 integrin antibody.

T1 sequence (P06756 31-889 limits assumed): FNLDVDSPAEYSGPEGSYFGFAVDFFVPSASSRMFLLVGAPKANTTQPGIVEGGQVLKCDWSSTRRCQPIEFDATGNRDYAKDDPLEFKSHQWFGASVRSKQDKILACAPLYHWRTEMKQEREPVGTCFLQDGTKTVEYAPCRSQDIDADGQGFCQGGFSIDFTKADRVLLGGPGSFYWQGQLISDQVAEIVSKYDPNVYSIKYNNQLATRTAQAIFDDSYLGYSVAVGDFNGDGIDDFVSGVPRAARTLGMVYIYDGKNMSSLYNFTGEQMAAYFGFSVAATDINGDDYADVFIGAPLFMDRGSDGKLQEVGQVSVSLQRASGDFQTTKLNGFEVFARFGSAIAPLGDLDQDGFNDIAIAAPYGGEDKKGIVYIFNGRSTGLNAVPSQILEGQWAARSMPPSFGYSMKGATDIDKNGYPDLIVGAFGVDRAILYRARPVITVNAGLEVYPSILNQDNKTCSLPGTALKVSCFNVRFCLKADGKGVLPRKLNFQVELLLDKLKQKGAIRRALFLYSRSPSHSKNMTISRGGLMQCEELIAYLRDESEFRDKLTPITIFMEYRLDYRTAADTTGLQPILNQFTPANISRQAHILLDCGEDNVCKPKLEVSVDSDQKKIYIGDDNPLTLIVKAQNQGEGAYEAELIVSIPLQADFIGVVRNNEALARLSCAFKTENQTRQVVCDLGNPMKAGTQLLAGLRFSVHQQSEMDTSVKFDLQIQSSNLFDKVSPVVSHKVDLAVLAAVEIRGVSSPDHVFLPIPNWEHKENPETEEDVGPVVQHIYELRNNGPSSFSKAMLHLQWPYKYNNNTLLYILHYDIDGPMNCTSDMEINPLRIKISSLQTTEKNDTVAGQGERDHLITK
T1 sequence (P06756 891-1048 partner limits assumed): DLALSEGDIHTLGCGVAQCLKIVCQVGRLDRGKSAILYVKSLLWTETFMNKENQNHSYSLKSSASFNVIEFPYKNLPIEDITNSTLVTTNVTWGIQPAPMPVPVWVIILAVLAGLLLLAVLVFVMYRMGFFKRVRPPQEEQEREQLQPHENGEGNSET
T1 sequence (P05106 27-788): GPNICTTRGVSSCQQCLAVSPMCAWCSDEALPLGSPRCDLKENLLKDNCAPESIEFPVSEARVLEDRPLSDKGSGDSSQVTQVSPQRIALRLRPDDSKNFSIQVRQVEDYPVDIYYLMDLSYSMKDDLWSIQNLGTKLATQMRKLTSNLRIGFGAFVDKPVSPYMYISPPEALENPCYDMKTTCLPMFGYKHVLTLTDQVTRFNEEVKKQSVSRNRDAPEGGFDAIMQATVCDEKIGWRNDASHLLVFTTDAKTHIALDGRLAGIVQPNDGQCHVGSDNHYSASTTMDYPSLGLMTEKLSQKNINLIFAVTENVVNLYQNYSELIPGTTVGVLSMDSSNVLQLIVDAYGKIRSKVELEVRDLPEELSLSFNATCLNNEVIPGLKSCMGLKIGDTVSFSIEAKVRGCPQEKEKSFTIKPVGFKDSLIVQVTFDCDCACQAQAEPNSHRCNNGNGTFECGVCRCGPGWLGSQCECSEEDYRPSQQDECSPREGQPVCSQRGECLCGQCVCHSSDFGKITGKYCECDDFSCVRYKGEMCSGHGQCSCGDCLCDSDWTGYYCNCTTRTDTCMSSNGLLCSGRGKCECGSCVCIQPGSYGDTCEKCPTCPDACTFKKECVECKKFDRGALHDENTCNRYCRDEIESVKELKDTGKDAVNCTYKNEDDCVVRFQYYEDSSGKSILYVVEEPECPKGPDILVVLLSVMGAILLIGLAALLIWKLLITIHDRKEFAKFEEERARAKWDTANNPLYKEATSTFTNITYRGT

For Arg-Gly-Asp [RGD], the “inhibition of αvβ3 integrin antibody binding” value was “inhibition of antibody binding”.
